Literature values in patent US20230233634A1, “PROCYANIDINS FOR THE TREATMENT OF ENDOTHELIAL DYSFUNCTION TRIGGERED BY COVID-19” (priority 2020, published 2023).

Test system: iNOS (inducible nitric oxide synthase)
Conditions: direct anti-inflammatory activity

In the case of `O=C1CCC(Cc2ccc(O)c(O)c2)O1` (stereo not shown) [M1, δ-(3,4-dihydroxy-phenyl)-γ-valerolactone], the “iNOS expression and nitrite production” value is given as “reducing iNOS (inducible nitric oxide synthase) expression and excessive nitrite production”.
